Consider 63 compounds from a melting point compilation (Tetko et al.; mined from patent text by program, amines drawn as free bases though some values may be those of a salt).

Some results are limits rather than exact numbers.

In turn, `CN1CCC(Nc2ccccc2OCc2ccccc2)CC1` had a melting point of 90 to 95 °C.

Compound `COc1ccc(COCc2nc(C(C)C)c(Sc3cc(Cl)cc(Cl)c3)n2CC(F)(F)F)cc1` yielded a melting point of 134 to 136 °C. The compound `O=C(NS(=O)(=O)C=Cc1ccccc1)N1CCC(CCCc2ccccc2)CC1` showed a melting point of 125 to 127 °C. In the case of `Cc1cc(C)c(-n2c(C)cc(C)c(C#N)c2=O)cc1N` it was 218 to 219 °C.

`COc1cccnc1Oc1cccc(C#N)c1` returned a melting point of 88 to 89 °C. Consider `CCOC(=O)c1cc(C(=O)OCC)c2c(Cl)cc(Cl)cc2n1`, for which the melting point fell in the range of 104 to 106 °C. In turn, `CC(=O)O[C@@H]1OCC[C@@H]1NC(=O)[C@H](CC(C)C)NC(=O)Nc1cccc2ccccc12` gave a melting point of 196 to 198 °C. The compound `COc1cccc(S(=O)(=O)Nc2nccnc2OC)c1` came in with a melting point of 133 to 134 °C. In the case of `COc1ccc(CSc2ccncc2C(=O)O)cc1` it was 230 °C; in that of `CC(O)c1cc(S(N)(=O)=O)sc1S(=O)(=O)c1ccc(O)cc1` (stereo not drawn), 173 to 175 °C. Under `CC(C)(C)OC(=O)Cn1ccn(C2CCc3ccccc3C2)c1=S` (stereo not drawn) stands 167 to 169 °C; under `Cc1noc(C(=O)N2CCCCC2)c1C(=O)O`, 128 to 130 °C. As for `O=C1CCCc2c1cccc2N1CCN(CCCCOc2ccc3ccc(=O)[nH]c3n2)CC1`, the melting point was in the range of 158 to 160 °C. For `COc1ccc(CN2C(=O)C3CC(c4ccccc4)(C3)C2=O)cc1`, the melting point fell in the range of 87 to 88 °C. With `COC(=O)[C@@H]1c2ccccc2C[C@@H]1O`, the melting point lay in the range of 72.5 to 73.5 °C. As to `CCCCc1oc2ccccc2c1C(=O)NCc1ccc(-c2ccc(OCC(=O)O)c(Br)c2)cc1`, the melting point was 175 to 190 °C.

Consider `Cc1cccc(-c2[nH]c(C(C)C)nc2-c2ccc(F)c(-c3c[nH]cn3)c2)n1`, for which the melting point was in the range of 268 to 270 °C. In the case of `O=c1c2ccc(Cl)cc2[nH]c2c(O)nn(Cc3ccco3)c(=O)c12` it was > 265 °C; in that of `CCCn1c(COCC)nc2c(N)nc3ccc(OCCNS(C)(=O)=O)cc3c21`, 178 to 180 °C; in that of `CC(CO)CCCC(C)C1CCC2C3CC=C4C(C)(C)C(O)CCC4(C)C3CCC12C` (stereo not drawn), 174 to 175 °C. Consider `O=C1COc2ccc(C3=Nc4ccccc4SC3c3ccc(Cl)cc3)cc2N1` (stereo not drawn), for which the melting point is 153 to 155 °C. `CSC(=S)N1CCN(Cc2ccccc2O)CC1` displayed a melting point of 147 °C.

`O=C(Cc1ccccc1)c1ccc(OC=C(F)F)cc1` registered a melting point of 81 to 85 °C. Compound `O=C1c2c(Cl)cccc2S(=O)(=O)N1CCl` returned a melting point of 135 to 136 °C. Consider `CCc1nn2c(c1Oc1cc(Cl)cc(Cl)c1)C(=O)NCC2`, for which the melting point was 220 to 223 °C. `CC(=O)Nc1nc(C)c(S(=O)(=O)N(C)CCO)s1`: the melting point turned out to be 189 °C.

`COC(=O)C1(c2ccc(OCCNC(=O)C3Cc4ccccc4N3S(=O)(=O)c3ccc(-c4cc(C(F)(F)F)ccc4Cl)cc3)cc2)CC1` (stereo not drawn) displayed a melting point of 64 to 72 °C. The compound `Nc1ncnc2c1nc(OC(=O)c1ccccc1)n2Cc1ccccc1` yielded a melting point of 227 to 229 °C. In turn, `COC1=C(OC)C(=O)C2=C(CC(CCCCOc3ccc(C(=O)N4CCC(c5ccccc5)CC4)cc3)C2)C1=O` had a melting point of 90 to 94 °C. In turn, `COc1ccc(Cn2nc(CO)c3ccccc32)cc1` gave a melting point of 95 to 97 °C. Compound `CCCCc1nc(CO)c(Cl)n1Cc1ccccc1` showed a melting point of 78 to 80 °C. `CN1CCC(c2c[nH]c3ccc(OC4CCCCC4)cc23)CC1` showed a melting point of 192 to 194 °C. `Cc1cc(Cl)ccc1OCC(=O)N1Cc2ccc(C(=O)C(Cl)(Cl)Cl)n2Cc2ccccc21` came in with a melting point of 156 to 158 °C. Take `CS(=O)(=O)c1ccc(-c2coc3ccc(-c4nnc(N)o4)cc23)cc1`: the melting point was 274 to 275 °C. `CC(=O)N(C)c1nc(-c2ccccc2)c(-c2ccc(=O)n(C(C)C)n2)s1` gave a melting point of 165 to 167 °C. In the case of `CCCNC(=O)C(O)C1c2ccccc2C(=O)N1c1ccc2ccc(C)nc2n1` (stereo not drawn) it was 128 to 130 °C; in that of `FC(F)(F)Sc1c(Cl)c(Cl)c(CBr)c(Cl)c1Cl`, 117 to 118 °C; in that of `COc1ccc2c(c1)OC(CN)C2` (stereo not drawn), > 220 °C. `Cn1c2ccccc2c2nc3c(C=O)cccc3nc21`: the melting point was 219 to 220 °C. With `O=C(O)c1ccc(O)c(I)c1`, the melting point was 163 °C.

Compound `COc1c(C2CCN(CCCCNC(=O)c3ccc(-c4ccc(C#N)nc4)cc3)CC2)ccc2c1CCCC2` displayed a melting point of 179 to 181 °C. Compound `O=C1c2c(Cl)cccc2-n2cnc(C#Cc3ccccc3)c2[C@@H]2CCCN12` displayed a melting point of 241 to 242 °C. For the compound `CCOC(=O)C1=C(COCc2ccc(CN(C)C)s2)NC(C)=C(C(=O)OC)C1c1ccccc1Cl` (stereo not drawn), the melting point lay in the range of 81 to 83 °C.

The compound `O=C(O)c1ccc(N2CCOCC2)c(NC(=O)C(CS)Cc2ccccc2)c1` (stereo not drawn) displayed a melting point of 218 to 222 °C.

In the case of `CCOC(=O)Cc1cccc2c(=O)cc(C3=CCCCC3)oc12`, the melting point lay in the range of 126 to 127 °C. Under `COC(=O)[C@]12CN(Cc3ccccc3)C[C@@H]1C(c1ccc(OC)cc1)=CC[C@@]2(C)c1ccccc1` (racemic) stands 132 °C; under `CCOC(=O)c1ccc(CN2CCN(C3=NC4(C=CC(=O)C=C4)C(c4ccccc4)=C3)CC2)cc1`, 199 °C; under `CC(C)C(NS(=O)(=O)c1ccc(Cl)cc1)C(=O)Nc1ccc(CC(=O)O)cc1` (racemic), 228 to 230 °C. `CCCCCc1c(-c2ccc3cc(OCc4nnn[nH]4)ccc3c2)n(Cc2ccccc2)c2ccccc12` gave a melting point of 109 to 112 °C. `ClCCCCOc1ccc(C2c3ccc(OCc4ccccc4)cc3OCC2c2ccccc2)cc1` (stereo not drawn) came in with a melting point of 94 to 97.5 °C. In the case of `Cc1ccc2c(c1)NC(=O)CO2` it was 204 to 205 °C; in that of `CCCC(=O)NCCN1CCOc2ccc(OC)cc21`, 73 to 74 °C; in that of `Cc1c(O)cc(N2C(=O)c3ccccc3C2=O)cc1C(=O)OCc1ccc([N+](=O)[O-])cc1`, 210 to 244 °C.

Regarding `CCCCP(=O)(O)CC(C)(O)CN` (stereo not drawn), the melting point fell in the range of 187 to 189 °C. `CCOC(=O)c1c2n(c3cc(Br)c(F)cc3c1=O)C(C)CS2` (stereo not drawn): the melting point came out at 211 °C.

Regarding `C=CCNc1nc(N)nc(-c2ccccc2)c1-c1ccc(=O)n(C(C)C)n1`, the melting point is 192 °C.

`Cc1sc(-c2ccccc2)nc1CN(C)[C@H]1CC[C@H](c2ccc3[nH]c(=O)oc3c2)CC1` gave a melting point of 246 to 248 °C.

Compound `COc1ccccc1CC(c1sccc1C)N(C)C=O` (stereo not drawn) had a melting point of 80 to 83 °C. Under `Cn1cc(-c2ccnc(Cl)n2)c(-c2ccc(Cl)cc2Cl)n1` stands 165 to 166 °C; under `COC(=O)CCc1ncc(O)c(C(=O)OC)c1C(=O)OC`, 66 to 67 °C; under `Cn1nc(-c2sc(C(=O)NCc3ccccn3)nc2-c2ccccc2)ccc1=O`, 189 to 190 °C.

For `Cc1c(-c2ccccc2)oc2c(OCCN=[N+]=[N-])cccc2c1=O`, the melting point was in the range of 119 to 120 °C.

`Nc1c(C(=O)c2ccc(Cl)cc2)oc2ccccc12` gave a melting point of 202 to 204 °C.

For orientation: melting point means the temperature, or range, at which the solid turns liquid.
